# Patent publication US9420790B2, “Molecules that induce disease resistance and improve growth in plants” (The Regents of the University of California, priority 2013, dated 2016)
# “Also recorded” adds a separate entry of the source.
# Columns and labels:
# [1] = test system: CaBP22^−333::GUS expression; test: CaBP22-333::GUS reporter assay, liquid-grown seedlings (saturation treatment); type: in vivo, Arabidopsis thaliana
# Experimental: (§1) B. Trypan blue staining of CaBP22^−333 : :GUS seedlings incubated for 24 h in medium containing compounds at the indicated concentrations.
# (§2) To quantify the bioactivity of HTC, we performed various assays with one week-old CaBP22^−333::GUS seedlings submerged in liquid growth medium containing HTC or mock-solution (saturation treatment). […] To examine if HTC induces phytotoxicity, we stained Col-0 seedlings after saturation treatment with trypan blue.
# (§3) To determine which substituents or moieties of the HTC molecule are critical for its defense-inducing activity, seven commercially available HTC analogs were analyzed (FIG. 3A). We compared the ability of these compounds to induce GUS expression in saturation treated CaBP22^−333::GUS Arabidopsis seedlings to that of DCA and HTC. […] We also used trypan blue staining to examine HTC-analog-induced phytotoxicity.
# [2] = test system: Peronospora isolate Noco2; test: Noco2 spore inhibition assay in soil-grown seedlings; type: in vivo, Hyaloperonospora arabidopsidis; settings: for level of protection / defense-inducing activity against Noco2 / concentration giving significant protection against Noco2: dose-response; for level of protection / defense-inducing activity against Noco2: three-week old Col-0 (FIG. 3B); for concentration giving significant protection against Noco2: three-week old Col-0, infected 24 h after treatment, 7 dpi (FIG. 3B); for resistance to Noco2: 100 μM sprayed 1 h prior to pathogen challenge; for suppression of Noco2 spore formation / resistance to Noco2: 7 dpi
# Experimental: FIG. 2. Kinetic analysis of chemically-induced disease resistance. Experiments were conducted with three-week-old soil-grown Col-0 seedlings sprayed with 100 μM HTC, DCA, INA, or mock solution (1% DMSO) at the indicated times prior to being sprayed with 2×10^4 mL^−1Noco2 spores (2 ml per pot). Peronospora (Hyeloperonospora arabidopsidis) spores were counted 7 dpi (days post-infection). Mean and SE values were calculated from a minimum of three biological replicates and the average of those is shown above.
# FIG. 3. Structure-activity analysis of HTC analogs. A. Chemical structures of DCA, HTC and tested HTC analogs. Chiral centers of the HTC skeleton are indicated by “1*” and “2*” in HTC. B. Noco2 spore inhibition assay. Three-week-old soil-grown Col-0 seedlings were spray-infected 24 h after treating with varying concentrations of each synthetic elicitor and then assayed at 7 dpi for spore growth. 100% inhibition=0 spores. […] The average of those three replicates is shown. Significant differences of compound-treated compared to mock-treated seedlings determined by Student's t-tests (p<0.05) are marked by colored four pointed stars.
# (§4) FIG. 4. Analysis of HTC activity in defense mutant plants. A & B. RT-PCR analysis of CaBP22 transcript levels in Col-0 (wild-type) and mutant backgrounds 24 h after spraying 2-week-old seedlings with mock-solution (1% DMSO), 100 μM DCA, or HTC. RT-PCRs with ACTIN are shown as loading controls. […] C. Analysis of HTC activity in Col-0 or nahG background. Experiments were conducted with three-week-old soil-grown Col-0 or nahG seedlings sprayed with 100 μM HTC, 100 μM DCA, or mock-solution (1% DMSO) 24 h prior to infection with 2×10^4 virulent Noco2 spores ml^−1 (2 ml per pot). Spores were counted at 7 dpi. Mean and SE values were calculated from a minimum of three biological replicates and their averages of are shown.
# We next tested whether HTC could induce pathogen resistance in soil-grown plants. […] To determine if HTC differs from other synthetic elicitors in the kinetics of defense induction, Col-0 seedlings were sprayed with 100 μM of INA, DCA, HTC, or mock, 1 h, 3 h, 1 d, 3 d, or 6 d prior to pathogen challenge.
# We performed a dose-response analysis of inhibition of Noco2 spore development in three-week old Col-0 plants using the HTC analogs (FIG. 3B).
# We also compared the biological activity of s-HTC to that of p-HTC by spraying a concentration gradient of both preparations on soil-grown Col-0 seedlings 24 h prior to challenge with Noco2.
# [3] = test system: Hyaloperonospora arabidopsidis (Peronospora); settings: Arabidopsis; cited from earlier work
# Col-0 seedlings = test: Trypan blue staining for phytotoxicity (cell death) after saturation treatment; type: in vivo, Arabidopsis thaliana; settings: treated for 24 h at 300 μM
# Experimental: as §1, §2, §3
# Pseudomonas syringae = settings: Arabidopsis; cited from earlier work
# CaBP22 transcript levels = test: RT-PCR analysis of CaBP22 transcript levels in Col-0 and defense mutants; type: in vivo, Arabidopsis thaliana
# Experimental: as §4
# To establish the mode-of-action of HTC, we performed reverse transcription (RT)-PCRs examining transcript levels of the defense marker gene CaBP22 in Col-0 and a set of mutant lines representing various defense signaling mechanisms. […] In the transgenic nahG line, which is compromised in the accumulation of salicylic acid (SA), the ability of HTC to induce CaBP22 expression was blocked, while that of DCA was not affected (FIGS. 4A and B).
# Arabidopsis roots = test: Root length of Col-0 seedlings on 1/2 MS plates containing synthetic elicitor; type: in vivo, Arabidopsis thaliana; settings: for enhancement of root length / root growth: HTC at 1 μM only, DCA and INA at various tested concentrations; for root growth at higher concentrations: higher doses, range tested 1 to 100 μM
# Experimental: FIG. 5. Relative root length of Col-0 plants grown on synthetic elicitors. Col-0 seedlings were plated in square petri dishes on ½ MS medium containing 1, 10, 25, 50, 75 or 100 μM of HTC, DCA, INA, or the respective controls (solvent only). A. Roots of Col-0 seedlings grown on 1 uM HTC or control (0.01% DMSO) medium 14 days after germination. B. Average percent Col-0 root length grown on synthetic elicitors compared to Col-0 grown on control. Root length was measured at day 3, 5, 7, 11, and 14. Results are expressed as percentages of the average root length on the respective synthetic elicitor treatments compared to their controls. The average, standard error, and Student's t-test (p<0.05) were calculated from these values. Significant differences between synthetic elicitor-treated and control-treated plants are marked by a star above the corresponding data point. Y-axis represents relative root growth in the presence of synthetic elicitor. CSE: concentration of synthetic elicitor; dpg: days post germination.
# We compared the ability of other synthetic elicitors to enhance growth, and performed root growth assays with INA, DCA, and HTC (FIG. 5B). Each synthetic elicitor was added to the solid media plates at concentrations ranging from 1 to 100 μM. The plates were placed upright in a growth chamber, and root lengths were measured at 3 d-intervals. To merge data sets, root length was expressed as a percentage of their value relative to the average of the mock (control) for that data set. Normalizing each root length to its control allowed all replicates to be combined together to calculate averages, standard errors, and perform statistical tests (FIG. 5B).
smiles,measurement,setting,value
"O=C(O)C1CSC(c2ccccc2O)N1 (centres unmarked) [CMP140, 2-(2-hydroxy-phenyl)-thiazolidine-4-carboxilic acid]",efficiency of GUS induction among HTC analogs,[1],most efficient HTC analog
same,level of protection / defense-inducing activity against Noco2,[2],less efficient defense inducer compared to HTC
same,concentration giving significant protection against Noco2,[2],at least 100 uM
"Nc1c(Cl)cc(Cl)cc1C(=O)O [DCA, 3-5-dicholoroanthranlilic acid, reference compound]",disease resistance,[3],"fast, strong and transient disease resistance"
same,seedlings with cell death (trypan blue staining),Col-0 seedlings,100%
same,resistance to Noco2,[2],full resistance
same,suppression of Noco2 spore formation / resistance to Noco2,"[2]; Col-0, 100 μM sprayed 24 h prior to infection",induced resistance; also recorded: significantly suppresses
same,level of protection / defense-inducing activity against Noco2,[2],highest protection
same,concentration giving significant protection against Noco2,[2],10 µM
same,suppression of Noco2 spore formation / resistance to Noco2,"[2]; nahG, 100 μM sprayed 24 h prior to infection",induced resistance; also recorded: significantly suppresses
same,disease resistance,Pseudomonas syringae,"fast, strong and transient disease resistance"
same,CaBP22 transcript levels,"CaBP22 transcript levels; Col-0, 24 h after spraying 100 μM",induced an increase
same,ability to induce CaBP22 expression,"CaBP22 transcript levels; transgenic nahG line, 100 μM",not affected
same,CaBP22 transcript levels,"CaBP22 transcript levels; wrky70-3 mutant, 24 h after spraying 100 μM",not
same,enhancement of root length / root growth,Arabidopsis roots,enhanced Arabidopsis root growth
same,root growth at higher concentrations,Arabidopsis roots,strongly inhibited
"O=C(O)c1cc(Cl)nc(Cl)c1 [INA, reference compound]",resistance to Noco2,[2],full resistance
same,enhancement of root length / root growth,Arabidopsis roots,enhanced Arabidopsis root growth
same,root growth at higher concentrations,Arabidopsis roots,not
"O=C(O)C1CSCN1 (centres unmarked) [T4CA, 4-carboxy-4-thiazolidinyl, reference compound]",level of protection / defense-inducing activity against Noco2,[2],did not result in significant immunity
